# Reference: ChEMBL document CHEMBL1151339, “Antitumor agents from bohemic acid complex, III. The isolation of marcellomycin, musettamycin, rudolphomycin, mimimycin, collinemycin, alcindoromycin, and bohemamine” (J Nat Prod, 1980)
# Key:
# [1] = system: Klebsiella pneumoniae; experiment: Antibacterial activity against Klebsiella pneumoniae A15130 by 2-fold tube dilution method; format: functional
# [2] = system: Mus musculus; experiment: Toxicity in BDF1 mouse xenografted with mouse L1210 cells assessed as survival at 12.8 mg/kg, ip after 5 days; format: organism-based; parameters: dose 12.8 mg/kg, route intraperitoneal; conditions: in vivo, 120 h
# [3] = system: Pseudomonas aeruginosa; experiment: Antibacterial activity against Pseudomonas aeruginosa A-9843A by 2-fold tube dilution method; format: functional
# [4] = system: Staphylococcus aureus; experiment: Antibacterial activity against Staphylococcus aureus A-9497 by 2-fold tube dilution method; format: functional
# [5] = system: L1210; experiment: Antitumor activity against mouse L1210 cells xenografted in BDF1 mouse assessed as median survival time at 1.6 mg/kg, ip; format: functional; conditions: route intraperitoneal
# [6] = system: Mus musculus; experiment: Toxicity in BDF1 mouse xenografted with mouse L1210 cells assessed as survival at 25.6 mg/kg, ip after 5 days; format: organism-based; parameters: dose 25.6 mg/kg, route intraperitoneal; conditions: in vivo, 120 h
# [7] = system: Streptococcus pyogenes; experiment: Antibacterial activity against Streptococcus pyogenes A-9604 by 2-fold tube dilution method; format: functional
# [8] = system: L1210; experiment: Antitumor activity against mouse L1210 cells xenografted in BDF1 mouse assessed as change in tumor average weight at 1.6 mg/kg, ip; format: functional; conditions: route intraperitoneal
# [9] = system: Enterococcus faecalis; experiment: Antibacterial activity against Streptococcus faecalis A20688 by 2-fold tube dilution method; format: functional
# [10] = system: Pichia kudriavzevii; experiment: Antifungal activity against Candida krusei A15052 by 2-fold tube dilution method; format: functional
# [11] = system: Candida albicans; experiment: Antifungal activity against Candida albicans A15050 by 2-fold tube dilution method; format: functional
# [12] = system: L1210; experiment: Antitumor activity against mouse L1210 cells xenografted in BDF1 mouse assessed as median survival time at 6.4 mg/kg, ip; format: functional; conditions: route intraperitoneal
# [13] = system: Enterobacter cloacae; experiment: Antibacterial activity against Enterobacter cloacae A-9659 by 2-fold tube dilution method; format: functional
# [14] = system: Trichophyton mentagrophytes; experiment: Antifungal activity against Trichophyton mentagrophytes A-9870 by 2-fold tube dilution method; format: functional
# [15] = system: Proteus mirabilis; experiment: Antibacterial activity against Proteus mirabilis A-9900 by 2-fold tube dilution method; format: functional
# [16] = system: L1210; experiment: Antitumor activity against mouse L1210 cells xenografted in BDF1 mouse at 12.8 mg/kg, ip relative to control; format: functional; conditions: route intraperitoneal
# [17] = system: L1210; experiment: Antitumor activity against mouse L1210 cells xenografted in BDF1 mouse assessed as change in tumor average weight at 3.2 mg/kg, ip; format: functional; conditions: route intraperitoneal
# [18] = system: Serratia marcescens; experiment: Antibacterial activity against Serratia marcescens A20019 by 2-fold tube dilution method; format: functional
# [19] = system: Mus musculus; experiment: Toxicity in BDF1 mouse xenografted with mouse L1210 cells assessed as survival at 1.6 mg/kg, ip after 5 days; format: organism-based; parameters: dose 1.6 mg/kg, route intraperitoneal; conditions: in vivo, 120 h
# [20] = system: L1210; experiment: Antitumor activity against mouse L1210 cells xenografted in BDF1 mouse assessed as change in tumor average weight at 25.6 mg/kg, ip; format: functional; conditions: route intraperitoneal
# [21] = system: Candida albicans; experiment: Antifungal activity against Candida albicans A-9540 by 2-fold tube dilution method; format: functional
# [22] = system: L1210; experiment: Antitumor activity against mouse L1210 cells xenografted in BDF1 mouse assessed as change in tumor average weight at 6.4 mg/kg, ip; format: functional; conditions: route intraperitoneal
# [23] = system: L1210; experiment: Antitumor activity against mouse L1210 cells xenografted in BDF1 mouse at 6.4 mg/kg, ip relative to control; format: functional; conditions: route intraperitoneal
# [24] = system: L1210; experiment: Antitumor activity against mouse L1210 cells xenografted in BDF1 mouse assessed as median survival time at 51.2 mg/kg, ip; format: functional; conditions: route intraperitoneal
# [25] = system: L1210; experiment: Antitumor activity against mouse L1210 cells xenografted in BDF1 mouse assessed as change in tumor average weight at 12.8 mg/kg, ip; format: functional; conditions: route intraperitoneal
# [26] = system: Mus musculus; experiment: Toxicity in BDF1 mouse xenografted with mouse L1210 cells assessed as survival at 3.2 mg/kg, ip after 5 days; format: organism-based; parameters: dose 3.2 mg/kg, route intraperitoneal; conditions: in vivo, 120 h
# [27] = system: Staphylococcus; experiment: Antibacterial activity against penicillin resistant Staphylococcus A-9606 by 2-fold tube dilution method; format: functional
# [28] = system: Streptococcus pneumoniae; experiment: Antibacterial activity against Streptococcus pneumoniae A-9585 by 2-fold tube dilution method; format: functional
# [29] = system: Candida albicans; experiment: Antifungal activity against Candida albicans A15049 by 2-fold tube dilution method; format: functional
# [30] = system: Microsporum canis; experiment: Antifungal activity against Microsporum canis A-9872 by 2-fold tube dilution method; format: functional
# [31] = system: L1210; experiment: Antitumor activity against mouse L1210 cells xenografted in BDF1 mouse assessed as median survival time at 12.8 mg/kg, ip; format: functional; conditions: route intraperitoneal
# [32] = system: L1210; experiment: Antitumor activity against mouse L1210 cells xenografted in BDF1 mouse at 51.2 mg/kg, ip relative to control; format: functional; conditions: route intraperitoneal
# [33] = system: Escherichia coli; experiment: Antibacterial activity against Escherichia coli A15119 by 2-fold tube dilution method; format: functional
# [34] = system: Candida tropicalis; experiment: Antifungal activity against Candida tropicalis A15051 by 2-fold tube dilution method; format: functional
# [35] = system: L1210; experiment: Antitumor activity against mouse L1210 cells xenografted in BDF1 mouse at 25.6 mg/kg, ip relative to control; format: functional; conditions: route intraperitoneal
# [36] = system: L1210; experiment: Antitumor activity against mouse L1210 cells xenografted in BDF1 mouse assessed as change in tumor average weight at 51.2 mg/kg, ip; format: functional; conditions: route intraperitoneal
# [37] = system: L1210; experiment: Antitumor activity against mouse L1210 cells xenografted in BDF1 mouse assessed as median survival time at 3.2 mg/kg, ip; format: functional; conditions: route intraperitoneal
# [38] = system: L1210; experiment: Antitumor activity against mouse L1210 cells xenografted in BDF1 mouse at 3.2 mg/kg, ip relative to control; format: functional; conditions: route intraperitoneal
# [39] = system: Proteus vulgaris; experiment: Antibacterial activity against Proteus vulgaris A21559 by 2-fold tube dilution method; format: functional
# [40] = system: L1210; experiment: Antitumor activity against mouse L1210 cells xenografted in BDF1 mouse assessed as median survival time at 25.6 mg/kg, ip; format: functional; conditions: route intraperitoneal
# [41] = system: L1210; experiment: Antitumor activity against mouse L1210 cells xenografted in BDF1 mouse at 1.6 mg/kg, ip relative to control; format: functional; conditions: route intraperitoneal
# [42] = system: Mus musculus; experiment: Toxicity in BDF1 mouse xenografted with mouse L1210 cells assessed as survival at 51.2 mg/kg, ip after 5 days; format: organism-based; parameters: dose 51.2 mg/kg, route intraperitoneal; conditions: in vivo, 120 h
# [43] = system: Escherichia coli; experiment: Antibacterial activity against Escherichia coli A20341-1 by 2-fold tube dilution method; format: functional
# [44] = system: Mus musculus; experiment: Toxicity in BDF1 mouse xenografted with mouse L1210 cells assessed as survival at 6.4 mg/kg, ip after 5 days; format: organism-based; parameters: dose 6.4 mg/kg, route intraperitoneal; conditions: in vivo, 120 h
smiles,measurement,setting,value
CC[C@@]1(O)C[C@H](O[C@H]2C[C@H](NC)[C@H](O[C@H]3C[C@H](O)[C@H](O[C@@H]4C[C@H](O)[C@H](O)[C@H](C)O4)[C@H](C)O3)[C@@H](C)O2)c2c(cc3c(c2O)C(=O)c2c(O)ccc(O)c2C3=O)[C@H]1C(=O)OC [ALCINDOROMYCIN],MIC,[1],> 125 µg/mL
same,Activity,[2],Non-toxic
same,MIC,[3],> 125 µg/mL
same,MIC,[4],8 µg/mL
same,Activity,[5],7 days
same,Activity,[6],Non-toxic
same,MIC,[7],2 µg/mL
same,Activity,[8],1.3 g
same,MIC,[9],8 µg/mL
same,MIC,[10],> 16 µg/mL
same,MIC,[11],> 16 µg/mL
same,Activity,[12],8 days
same,MIC,[13],> 125 µg/mL
same,MIC,[14],> 16 µg/mL
same,MIC,[15],> 125 µg/mL
same,T/C,[16],128%
same,Activity,[17],0.5 g
same,MIC,[18],> 125 µg/mL
same,Activity,[19],Non-toxic
same,Activity,[20],-1.9 g
same,MIC,[21],> 16 µg/mL
same,Activity,[22],0.6 g
same,T/C,[23],107%
same,Activity,[24],11 days
same,Activity,[25],-0.8 g
same,Activity,[26],Non-toxic
same,MIC,[27],63 µg/mL
same,MIC,[28],1 µg/mL
same,MIC,[29],> 16 µg/mL
same,MIC,[30],> 16 µg/mL
same,Activity,[31],9.5 days
same,T/C,[32],147%
same,MIC,[33],> 125 µg/mL
same,MIC,[34],> 16 µg/mL
same,T/C,[35],133%
same,Activity,[36],-2.7 g
same,Activity,[37],8.5 days
same,T/C,[38],113%
same,MIC,[39],> 125 µg/mL
same,Activity,[40],10 days
same,T/C,[41],93%
same,Activity,[42],Non-toxic
same,MIC,[43],> 125 µg/mL
same,Activity,[44],Non-toxic
CC[C@@]1(O)C[C@H](O[C@H]2C[C@H](N(C)C)[C@H](O[C@H]3C[C@H](O)[C@H](O)[C@@H](C)O3)[C@@H](C)O2)c2c(cc3c(c2O)C(=O)c2c(O)ccc(O)c2C3=O)[C@H]1C(=O)OC [COLLINEMYCIN],MIC,[1],> 125 µg/mL
same,Activity,[2],Non-toxic
same,MIC,[3],> 125 µg/mL
same,MIC,[4],16 µg/mL
same,Activity,[5],8 days
same,MIC,[7],8 µg/mL
same,Activity,[8],-0.3 g
same,MIC,[9],63 µg/mL
same,MIC,[10],> 16 µg/mL
same,MIC,[11],> 16 µg/mL
same,Activity,[12],8 days
same,MIC,[13],> 125 µg/mL
same,MIC,[14],> 16 µg/mL
same,MIC,[15],> 125 µg/mL
same,T/C,[16],133%
same,Activity,[17],1.3 g
same,MIC,[18],> 125 µg/mL
same,Activity,[19],Non-toxic
same,Activity,[20],-4.2 g
same,MIC,[21],> 16 µg/mL
same,Activity,[22],-1.2 g
same,T/C,[23],107%
same,Activity,[24],11 days
same,Activity,[25],-2.3 g
same,Activity,[26],Non-toxic
same,MIC,[27],63 µg/mL
same,MIC,[28],2 µg/mL
same,MIC,[29],> 16 µg/mL
same,MIC,[30],> 16 µg/mL
same,Activity,[31],10 days
same,T/C,[32],147%
same,MIC,[33],> 125 µg/mL
same,MIC,[34],> 16 µg/mL
same,T/C,[35],147%
same,Activity,[36],-2.5 g
same,Activity,[37],8 days
same,T/C,[38],107%
same,MIC,[39],> 125 µg/mL
same,Activity,[40],11 days
same,T/C,[41],107%
same,MIC,[43],> 125 µg/mL
same,Activity,[44],Non-toxic
CC[C@@]1(O)C[C@H](O[C@H]2C[C@H](N(C)C)[C@H](O[C@H]3C[C@H](O)[C@H](O[C@@H]4C[C@H](O)[C@H](O)[C@H](C)O4)[C@H](C)O3)[C@@H](C)O2)c2c(cc3c(c2O)C(=O)c2c(O)ccc(O)c2C3=O)[C@@H]1C(=O)OC [MIMIMYCIN],MIC,[1],> 125 µg/mL
same,Activity,[2],Non-toxic
same,MIC,[3],> 125 µg/mL
same,MIC,[4],8 µg/mL
same,Activity,[5],7.5 days
same,MIC,[7],2 µg/mL
same,Activity,[8],0.5 g
same,MIC,[9],4 µg/mL
same,MIC,[10],> 16 µg/mL
same,MIC,[11],> 16 µg/mL
same,Activity,[12],9 days
same,MIC,[13],> 125 µg/mL
same,MIC,[14],> 16 µg/mL
same,MIC,[15],> 125 µg/mL
same,T/C,[16],113%
same,Activity,[17],1.3 g
same,MIC,[18],> 125 µg/mL
same,Activity,[19],Non-toxic
same,Activity,[20],0.1 g
same,MIC,[21],> 16 µg/mL
same,Activity,[22],-1.3 g
same,T/C,[23],120%
same,Activity,[24],10 days
same,Activity,[25],-0.3 g
same,Activity,[26],Non-toxic
same,MIC,[27],63 µg/mL
same,MIC,[28],1 µg/mL
same,MIC,[29],> 16 µg/mL
same,MIC,[30],> 16 µg/mL
same,Activity,[31],8.5 days
same,T/C,[32],133%
same,MIC,[33],> 125 µg/mL
same,MIC,[34],> 16 µg/mL
same,T/C,[35],107%
same,Activity,[36],-3.2 g
same,Activity,[37],8 days
same,T/C,[38],107%
same,MIC,[39],> 125 µg/mL
same,Activity,[40],8 days
same,T/C,[41],100%
same,MIC,[43],> 125 µg/mL
same,Activity,[44],Non-toxic
